Data on 14 molecules can be found in USRE43327E1, “Hydrophobic polyamine analogs and methods for their use” (Aminex Therapeutics, Inc., priority 2001, dated 2012).

Usually EC50 stands for the concentration at which the effect is half-maximal. Broadly, the IC50 is the concentration needed to halve the response being measured. As a reminder, the Ki is the dissociation constant of the complex between target and ligand, obtained from inhibition or displacement.

In series [1] the test system is 4 cell lines (A375, MDA-MB-231, PC-3, SK-OV-3). Description: Growth inhibition with DFMO, average over 4 cell lines. As to conditions: Table 3; average over cell lines, with DFMO; read-out: AVG. EC50. It is filed as cell-based.
Protocol: Cells were plated in 96-well plates such that they would be in log growth for the duration of the assay. The day after plating, PAs were added to the cells, and growth, if any, permitted to continue for six days in the presence of 1 mM AG and 0.5 μM SPD to insure that any growth inhibition was not the result of depletion of external polyamines in the media. At the end of the six days, cell growth was measured by MTS/PMS dye assay (Cell Titer 96 Aqueous Non-Radioactive Cell Proliferation Assay; Promega, Madison, Wis.).
Series [2] relates to PC-3. Description: Growth inhibition assay, PA alone, PC-3. To be noted: PA alone (no DFMO), six days, repeat determinations, read-out: Cell Line IC50 PC-3. Type of series: cell-based. Summed up: (§1)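 Aminoguanidine at 1 mM accompanied all polyamine or ORI compound treatments to suppress serum amine oxidase; every culture carried antibiotics and 2 mM L-glutamine.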
Series [3] deals with SK-OV-3. Description: Growth inhibition assay, PA alone, SK-OV-3. Type of series: cell-based. To be noted: PA alone (no DFMO), six days, repeat determinations, read-out: Cell Line IC50 SK-OV-3. In short, it runs like this: as §1
The test system of series [4] is polyamine transport in MDA-MB-231 cells. Description: Polyamine transport and Ki assay (3H-spermidine uptake). It is filed as cell-based. To be noted: 15 min 37° C., Lineweaver-Burke analysis. The protocol: [2,9-^3H]spermidine (SPD) from DuPont NEN, Boston, Mass. was added alone or simultaneously with PAs to 24-well plates containing MDA-MB-23 1 cells in log growth. The cells were incubated at 37° C. for 15 min to determine initial rate polyamine uptake. The cells were then washed three times with cold PBS, lysed with 0.1% SDS, and the amount of polyamine incorporation into the cells was determined by scintillation counting of the cell lysates. […] The Ki values were determined using double reciprocal Lineweaver-Burke plot analyses. Ki values were determined from linear equations derived from graphing the slopes of Lineweaver-Burke plot vs. inhibitor concentration, with Ki=y-intercept/slope.

Series [5] has as its system SK-OV-3. Description: Growth inhibition assay (MTS/PMS) with DFMO, SK-OV-3. Type of series: cell-based. To be noted: in the presence of DFMO (1-5 mM), 1 mM AG, 0.5 μM SPD, six days; repeat determinations; read-out: Cell Line EC50 SK-OV-3. How it is done:
(§2) Medias were obtained from Mediatech, Inc. (Herdon, Va.) and serums from Gibco BRL (Gaithersburg, Md.). 50 U/ml penicillin, 50 μg/ml streptomycin and 2 mM L-glutamine (all from Bio Whittaker, Walkersville, Md.) were included in all cultures. […] When cells were cultured with polyamines or ORI compounds, 1 mM aminoguanidine (AG; Sigma) was included to inhibit serum amine oxidase activity.

Series [6] relates to MDA-MB-231. Description: Growth inhibition assay (MTS/PMS) with DFMO, MDA-MB-231. It is filed as cell-based. To be noted: in the presence of DFMO (1-5 mM), 1 mM AG, 0.5 μM SPD, six days; repeat determinations; read-out: Cell Line EC50 MDA-MB-231. How it is done: as §2
Series [7] has as its system PC-3. Description: Growth inhibition assay (MTS/PMS) with DFMO, PC-3. It is filed as cell-based. As to conditions: in the presence of DFMO (1-5 mM), 1 mM AG, 0.5 μM SPD, six days; repeat determinations; read-out: Cell Line EC50 PC-3. How it is done: as §2
In series [8] the test system is MDA-MB-231. Description: Growth inhibition assay, PA alone, MDA-MB-231. Type of series: cell-based. To be noted: PA alone (no DFMO), six days; repeat determinations; read-out: Cell Line IC50 MDA-MB-231. In short, it runs like this: as §1
The subject of series [9] is A375. Description: Growth inhibition assay, PA alone, A375. To be noted: PA alone (no DFMO), six days, repeat determinations, read-out: Cell Line IC50 A375. It is filed as cell-based. Summed up: as §1
For series [10], the system named is A375. Description: Growth inhibition assay (MTS/PMS) with DFMO, A375. As to conditions: in the presence of DFMO (1-5 mM), 1 mM AG, 0.5 μM SPD, six days; repeat determinations; read-out: Cell Line EC50 A375. Type of series: cell-based. How it is done:
as §2

The conditions of series [11]: amino acid side chain, un-ionized fraction; Wolfenden 1981; cited from earlier work.

The structures appear in SMILES notation. Several values for one entry are separate records, joined by “and”; a condition that tells them apart may be missing. Equal values may be shown once. Read-outs that look alike come from different tables or passages of the source.

As to `CCCCCCCCCCCCCCCCCCCC(=O)NCCCC[C@H](N)C(=O)NCCCNCCCCNCCCN` [IA1], in series [1], the EC50 was 17 nM. The IC50 in series [2] and in series [3] was above 3000 nM throughout. For the same molecule, the Ki in [4] was 15 nM.
As to `CCCCCCCCCCCCCCCCCC(=O)NCCCC[C@H](N)C(=O)NCCCNCCCCNCCCN` [IA2], the half-maximal effective concentration (EC50) was 27 nM and 21 nM in [5]; 14 nM in series [1]. For the same molecule, the affinity in [4], expressed as Ki, was 1.4 nM.
On to `CCCCCCCCCCCCCCCC(=O)NCCCC[C@H](N)C(=O)NCCCNCCCCNCCCN` [IA4], for which the EC50 in series [1] stood at 77 nM. The Ki in series [4] was determined as 1.5 nM.
For the molecule `NCCCNCCCCNCCCNC(=O)[C@@H](N)CCCCNC(=O)OCc1ccccc1` [IA40], the EC50 is 41300 nM and 29800 nM in series [6]; 8510 nM and 7870 nM in series [7]. Further, the IC50 in series [8] and in series [2] was above 300000 nM each time. Further, the Ki in [4] worked out at 39 nM.
With `CCCCCCCCCCCCCCCC(=O)NCCCC[C@@H](N)C(=O)NCCCNCCCCNCCCN` [IB4], the EC50 in series [1] turned out to be 105 nM. Moreover, the affinity in series [4], expressed as Ki, was 17 nM.
Regarding `CCCCCCCCC(=O)NCCCC[C@@H](N)C(=O)NCCCNCCCCNCCCN` [IB6], the IC50 was above 30000 nM in series [9] (Homo sapiens, A-375, 144 h); above 30000 nM in series [2] (Homo sapiens, PC-3, 144 h); above 30000 nM in [3] (Homo sapiens, SK-OV-3, 144 h). In series [4], the Ki is 75 nM.
`CC(C)(C)OC(=O)N[C@@H](CCCCN)C(=O)NCCCNCCCCNCCCN` [IC41]: the results for the EC50 in [6] and in series [7] were 36900 nM and 16900 nM, respectively. For the same molecule, the IC50 in series [8] is above 300000 nM; in [2], 430000 nM. Moreover, in series [4], the Ki came out at 191 nM.
Turning to `CCCCCCCCCCCCCCCCS(=O)(=O)NCCCC[C@H](N)C(=O)NCCCNCCCCNCCCN` [IIA10], the EC50 in series [10] is 16 nM and 10 nM and 9 nM; in [5], 98 nM and 83 nM and 80 nM; in [1] it was 72 nM. In addition, the Ki in [4] is 4 nM.
On to `CCCCCCCCCCCCCCCCS(=O)(=O)NCCCC[C@@H](N)C(=O)NCCCNCCCCNCCCN` [IIB10], for which the EC50 in series [10] was 26 nM and 44 nM; in series [6], 169 nM; in series [7], 99 nM and 74 nM; in series [5], 134 nM and 224 nM; in series [1], 110 nM. Further, the IC50 is 18000 nM and 17700 nM in [9]; above 30000 nM in series [8]; 22000 nM and 19900 nM in series [2]; 18100 nM and 23100 nM in series [3]. Further, in series [4], the Ki was determined as 2 nM.
Consider `CCCCCCCC/C=C\CCCCCCCC(=O)NCCCC[C@@H](N)C(=O)NCCCNCCCCNCCCN` [IIIB1], for which the EC50 in series [10] is 170 nM; in series [6] it was 491 nM; in [7], 99 nM; in [5], 1570 nM; in [1], 583 nM. Further, the IC50 in series [9], in series [8], in series [2] and in series [3] was above 30000 nM each time. Moreover, the Ki in series [4] came to 54 nM.
`[HH]` [hydrogen]: in series [11], the “free energy for the transfer from the vapor phase to H2O (hydration potential)” value (from here on “free energy for the transfer”) is given as 2.39 kcal/mol.
Turning to `C` [methane], in series [11], the “free energy for the transfer” value is on record as 1.94 kcal/mol.
`CCCCN` [n-butylamine]: the “free energy for the transfer” value in series [11] is -7.00 kcal/mol.
`CCCNC(=N)N` [n-propylguanidine]: the “free energy for the transfer” value in series [11] is -14.6 kcal/mol.
